{"source": "paper PMC5152921", "about": "“Evolutionary and Functional Diversification of the Vitamin D Receptor-Lithocholic Acid Partnership” (PLoS ONE, 2016)", "key": {"Lamprey VDR": {"target": "T1, Lamprey VDR (Petromyzon marinus, UniProt Q7ZZY9)", "T1 sequence (Q7ZZY9 1-406)": "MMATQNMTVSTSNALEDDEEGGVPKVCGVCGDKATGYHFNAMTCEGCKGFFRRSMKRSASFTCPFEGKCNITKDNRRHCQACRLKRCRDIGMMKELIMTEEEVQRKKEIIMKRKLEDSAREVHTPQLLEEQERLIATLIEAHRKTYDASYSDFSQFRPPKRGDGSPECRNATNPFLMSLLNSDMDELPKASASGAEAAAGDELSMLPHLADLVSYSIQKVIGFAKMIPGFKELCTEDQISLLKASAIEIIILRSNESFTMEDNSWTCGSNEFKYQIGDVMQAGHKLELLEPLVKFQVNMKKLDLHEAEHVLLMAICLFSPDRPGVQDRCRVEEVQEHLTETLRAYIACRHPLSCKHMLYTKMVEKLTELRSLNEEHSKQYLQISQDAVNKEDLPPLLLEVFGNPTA", "T1 sequence (P19793 1-462 partner)": "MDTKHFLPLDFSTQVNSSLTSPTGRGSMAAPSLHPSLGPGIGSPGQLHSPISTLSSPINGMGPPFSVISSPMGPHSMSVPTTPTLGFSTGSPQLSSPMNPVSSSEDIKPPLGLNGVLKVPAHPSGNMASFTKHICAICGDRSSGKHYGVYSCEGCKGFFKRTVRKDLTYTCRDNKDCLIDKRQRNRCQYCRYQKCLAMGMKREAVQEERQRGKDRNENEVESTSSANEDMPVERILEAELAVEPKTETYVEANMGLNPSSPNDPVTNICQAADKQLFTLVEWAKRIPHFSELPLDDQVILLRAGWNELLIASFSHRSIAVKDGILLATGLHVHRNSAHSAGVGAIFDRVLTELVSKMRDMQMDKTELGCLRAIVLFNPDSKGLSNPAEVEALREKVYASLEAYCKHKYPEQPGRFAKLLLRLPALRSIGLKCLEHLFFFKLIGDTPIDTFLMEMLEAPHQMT", "experiment": "Competitive ligand binding assay ([3H]-1,25D3 displacement)", "conditions": "lysate with VDR and human RXRWT; 4 nM [3H]-1,25D3; 18 hours at 4°C; Cheng-Prusoff; mean ± SEM", "method": "(§1) Recombinant VDR and human RXRWT lysates were prepared from transfected COS7 cells (American Type Culture Collection #CRL-1651) as described in detail previously. Lysates were diluted 10-fold in ice-cold assay buffer (10 mM Tris HCl, 150 mM KCl, 1 mM EDTA, 0.3 mM ZnCl2, 5 mM DTT, and 1x protease inhibitor cocktail (100 μM AEBSF, 80 nM aprotinin, 5 μM bestatin, 1.5 μM E-64 (for cysteine proteases), 2 μM leupeptin, 1 μM pepstatin A), pH 7.5). […] Reactions were shaken to mix and incubated for 18 hours at 4°C. Bound and free ligand were separated with the addition of 80 μL of ice-cold separation buffer (2.5% (w/v) activated charcoal, 0.5% (w/v) dextran, 100 mM Na2HPO4, 39 mM NaH2PO4, 150 mM NaCl, 15 mM NaN3, 10% gelatin, pH 7.0), and incubated at 4°C for 15 minutes with shaking every 5 minutes. Reactions were centrifuged at 5,000 x g for 5 minutes at 4°C, and 200 μL of the supernatant containing the VDR-bound ligands was removed for scintillation counting.\n(§2) Total binding was determined using lysate from cells transfected with VDR, and nonspecific binding was determined using lysate from cells transfected with the empty pSG5 vector. Specific binding was determined by subtracting non-specific binding counts from the total binding counts."}, "Medaka VDRβ [1]": {"target": "T2, Medaka VDRβ (Oryzias latipes, UniProt B2CCA1)", "T2 sequence (B2CCA1 1-425)": "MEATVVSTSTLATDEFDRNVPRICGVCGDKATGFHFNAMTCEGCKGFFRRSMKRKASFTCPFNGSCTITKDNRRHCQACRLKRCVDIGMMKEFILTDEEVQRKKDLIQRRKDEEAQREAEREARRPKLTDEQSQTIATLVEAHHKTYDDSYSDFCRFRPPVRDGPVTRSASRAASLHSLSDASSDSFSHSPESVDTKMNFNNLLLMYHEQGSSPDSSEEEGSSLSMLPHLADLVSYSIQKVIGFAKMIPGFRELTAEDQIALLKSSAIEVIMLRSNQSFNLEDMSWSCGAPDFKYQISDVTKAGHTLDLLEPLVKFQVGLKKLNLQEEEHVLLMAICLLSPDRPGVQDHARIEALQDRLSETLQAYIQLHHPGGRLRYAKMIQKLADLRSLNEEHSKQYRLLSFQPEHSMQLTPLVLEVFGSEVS", "T2 sequence (P19793 1-462 partner)": "T1 sequence (P19793 1-462 partner)", "experiment": "Competitive ligand binding assay ([3H]-1,25D3 displacement)", "conditions": "lysate with VDR and human RXRWT; 4 nM [3H]-1,25D3; 18 hours at 4°C; Cheng-Prusoff; mean ± SEM", "method": "as §1, §2"}, "Medaka VDRα": {"target": "Medaka VDRα (Oryzias latipes, UniProt B2CCA0)", "sequence (B2CCA0 entry or part of it, one chain of several)": "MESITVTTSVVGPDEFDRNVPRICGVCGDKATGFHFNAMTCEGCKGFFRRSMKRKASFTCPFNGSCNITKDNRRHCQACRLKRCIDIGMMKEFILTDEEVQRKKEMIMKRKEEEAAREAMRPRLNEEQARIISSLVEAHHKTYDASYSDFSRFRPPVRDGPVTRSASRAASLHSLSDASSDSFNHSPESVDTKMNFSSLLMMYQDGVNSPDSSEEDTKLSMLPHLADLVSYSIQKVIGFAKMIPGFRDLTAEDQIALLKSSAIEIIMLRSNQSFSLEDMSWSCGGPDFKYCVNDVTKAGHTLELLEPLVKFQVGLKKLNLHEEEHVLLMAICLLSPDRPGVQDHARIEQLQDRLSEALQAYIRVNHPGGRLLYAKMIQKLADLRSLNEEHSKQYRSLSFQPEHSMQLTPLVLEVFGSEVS", "experiment": "Transient transactivation assay (XREM-Luc, HepG2)", "format": "cell-based", "conditions": "100 μM LCA", "method": "(§3) HepG2 cells (American Type Culture Collection #HB-8065) were cultured in T75 flasks with vented caps (Corning Life Sciences, Corning, NY) using Minimum Essential Medium (MEM) with phenol red supplemented with 10% fetal bovine serum, 1 mM sodium pyruvate, and 1X MEM non-essential amino acids. Cells were maintained following standard protocols in a 5% CO2 incubator set at 37°C, and split when 80–90% confluent.\n(§4) For the transient transactivation assays, HepG2 cells were seeded in 96-well tissue culture plates at a density of 2.5x10^4 cells per well in complete phenol red-free MEM, and allowed to recover overnight. Transfections were performed the following day using Lipofectamine 2000 (Life Technologies, Grand Island, NY) as described previously. For functional comparisons, 89.7 ng/well of full-length pSG5-VDR was co-transfected with 19.2 ng/well human XREM-Luc reporter and 4.5 ng/well of pRL-CMV as an internal luciferase control. Coregulator studies included the addition of 18.3 ng/well of human coregulators (pCDNA-RXRWT, pCDNA-RXRAF2, pSG5-SRC1, pSG5-GRIP1 or pSG5-ACTR) where indicated. […] Controls include 120 nM 1,25D3 as a positive control, and ethanol as a vehicle control. Twenty-four hours post-exposure cells were tested for luciferase activity using the Dual-Glo Luciferase Assay System (Promega Corporation, Madison, WI) according to the manufacturer’s protocols. Luciferase data were first normalized to the pRL-CMV internal luciferase control. LCA-mediated VDR transactivation (fold activation) was calculated as the ratio of the VDR luciferase response relative to the empty vector control. To calculate the impact of coregulators on VDR transactivation, VDR response in the presence of coregulators was normalized to VDR alone. All experiments were repeated 3 times and conducted as groups of 4 replicate wells. VDR response in the absence of coregulators was analyzed using a 1-way ANOVA followed by Dunnett’s multiple comparisons test. To examine the effects of different coregulators on VDR activation, data were analyzed using a 2-way ANOVA followed by Bonferroni’s multiple comparisons test in GraphPad Prism (GraphPad Inc, San Diego, CA)."}, "Medaka VDRβ [2]": {"target": "T2, Medaka VDRβ", "experiment": "Transient transactivation assay (XREM-Luc, HepG2)", "format": "cell-based", "conditions": "100 μM LCA", "method": "as §3, §4"}, "[3]": {"conditions": "co-transfected human RXRWT, vs VDR alone"}, "[4]": {"conditions": "compared to either coregulator individually"}}, "data": [{"smiles": "C[C@H](CCC(=O)O)[C@H]1CC[C@H]2[C@@H]3CC[C@@H]4C[C@H](O)CC[C@]4(C)[C@H]3CC[C@]12C", "note": "[LCA, 5β-cholanic acid-3α-ol]", "values": [{"measurement": "Ki", "setting": "Lamprey VDR", "value": 8.7, "unit": "µM"}, {"measurement": "Ki", "setting": "Medaka VDRβ [1]", "value": "7.6 ± 1.1", "unit": "µM"}, {"measurement": "Effect of exogenous human RXRWT on VDR transactivation", "setting": "Medaka VDRα; [3]", "value": "significantly enhanced transactivation"}, {"measurement": "Effect of RXRWT+SRC1 or RXRWT+GRIP1 on VDR transactivation", "setting": "Medaka VDRα; [4]", "value": "significantly enhanced VDR transactivation"}, {"measurement": "Effect of exogenous human RXRWT on VDR transactivation", "setting": "Medaka VDRβ [2]; [3]", "value": "significantly enhanced transactivation"}, {"measurement": "Effect of RXRWT+SRC1 or RXRWT+GRIP1 on VDR transactivation", "setting": "Medaka VDRβ [2]; [4]", "value": "significantly enhanced VDR transactivation"}]}]}
